Source: patent US20160238590A1, “COMPOSITIONS AND METHODS RELATED TO OAT SENSITIVITY” (IMMUSANT, INC., priority 2013, published 2016)
Where no end group is shown, it is not given here. [ ]: non-standard residue; d: D form. pGlu = O=C1CC[C@@H](C(=O)O)N1

Assays:
Type in all cases: cell-based, human
Patient 14 TCC-01 = assay: IFN-γ ELISpot with T cell clone; conditions: TCC Patient 14 TCC-01 (Table 5); mean no antigen 11.3, high background, SFU >25 considered as positive responses
Description: (§1) Peripheral blood mononuclear cells (PBMC) were isolated from heparinized whole blood using Ficoll-Paque™ Plus density-gradient centrifugation (GE Healthcare). IFN-γ ELISpot (Mabtech) was set up as previously described^8.
(§2) Isolation of TCC from CD patients was carried out as previously described^8. Briefly, CFSE-labeled PBMC were incubated with antigen for 7 days in IMDM supplemented with 5% heat-inactivated pooled human serum (PHS), 2 mM GlutaMAX™, 100 μM MEM non-essential amino acids (both from Gibco, Invitrogen), and 50 μM 2-mercaptoethanol (Sigma). Proliferated cells were single-cell sorted into 96-well plates containing IL-2, IL-4, anti-CD3 mAb, irradiated feeder cells (allogeneic PBMC and JY-EBV). TCC were expanded and maintained in IL-2 and IL-4 and tested for specificity by ELISpot with irradiated HLA-matched PBMC as antigen-presenting cells. Expanded clones were tested for HLA-DQ restriction, TCR Vbeta usage, and with lysine scans to work out minimal epitopes. See Table 1 below for TCC and epitope information.

Patient 2 TCC-01 = assay: IFN-γ ELISpot with T cell clone; conditions: TCC Patient 2 TCC-01 (Table 5); mean no antigen 1.1
Description: as §1, §2

Patient 6 TCC-01 = assay: IFN-γ ELISpot with T cell clone; conditions: TCC Patient 6 TCC-01 (Table 5); mean no antigen 2
Description: as §1, §2

PBMC [1] = assay: IFN-γ ELISpot on PBMC of CD patients after 3-day barley challenge; conditions: after barley challenge
Text: (§3) Australian Caucasian HLA-DQ2.5^+ and/or HLA-DQ8^+ CD subjects were recruited by advertisement in the Coeliac Society of Victoria newsletter and all had biopsy-proven CD conforming to ESPGHAN criteria. Patients had been on strict gluten free diet for at least 4 weeks prior to commencing grain challenge. Patients underwent 3-day grain challenge with oats, barley, or combined wheat, barley, and rye muffins, and 6 days after commencement, blood was collected. Day 0 responses were not observed in the selection of patients tested, as described previously^8.
(§4) Oats challenge consisted of 100 g dry weight daily of one of three commercial brands of oats: one not tested for wheat contamination (Uncle Toby's; Oats #1), and two shown by R5 ELISA to contain less than 20 ppm wheat gluten (Tilquhilie Pudding; Oats #2 and Freedom Food; Oats #3). Barley challenge consisted of pearl barley (Ward McKenzie) cooked into a risotto (150 g dry weight daily) and the wheat challenge consisted of four 50 g slices of wheat bread daily (Baker's Delight white loaf cut to toasting thickness). The combined wheat, barley, and rye challenge consisted of muffins baked with wheat flour (White Wings), barley flour (Four Leaf Milling), and rye flour (Four Leaf Milling; 22-25 g dry weight each daily). A symptom diary based on a […] Likert scale was completed by participants daily from baseline until day 6.
(§5) Two avenin peptide libraries were utilized for epitope screening. These were designed using avenin sequences from GenBank and a customized algorithm, as previously described^9. The initial library consisted of 199 screening-grade 20 mers including all possible 12 mers (Mimotopes). This library was screened with and without tTG pre-treatment. The second library consisted of additional avenin sequences that were synthesized with glutamate substitution at sites predicted to be deamidated by published algorithms^10, 11 removing the requirement for tTG treatment. This library contained 369 screening-grade 20 mers, including all possible 12 mers (Pepscan). The second round avenin library contained wild-type and deamidated versions of the most immunogenic sequences (25 high quality 16 mers from Mimotopes). High quality peptides containing previously described immunogenic sequences from wheat, barley, and rye were used to test for cross-reactivity^8 (Pepscan). High quality hordein and avenin peptides for TCC testing and biochemical studies were ordered from Pepscan, Mimotopes, or GL Biochem.
as §1

PBMC [2] = assay: IFN-γ ELISpot on PBMC of CD patients on day 6 after 3-day oats challenge
Text: as §3, §4, §5, §1

[3] = patient P2, peptide 100 μg/ml, after 3-day oats challenge

With “PQPFPEQPIPEQPQPY [barley peptide, 1103203A (27-42) [Q32 to E, Q37 to E]]” the “IFN-γ ELISpot response (raw SFU)” value (Patient 14 TCC-01) was 38 SFU, the “IFN-γ ELISpot response (raw SFU)” value (Patient 2 TCC-01) was 1 SFU and the “IFN-γ ELISpot response (raw SFU)” value (Patient 6 TCC-01) was 60 SFU.
For “PQPYPEQPQPFPQQPP [barley peptide, 1103203B (39-54) [Q44 to E]]”, the “IFN-γ ELISpot response (raw SFU)” value (Patient 14 TCC-01) was 12 SFU, the “IFN-γ ELISpot response (raw SFU)” value (Patient 2 TCC-01) was 292 SFU and the “IFN-γ ELISpot response (raw SFU)” value (Patient 6 TCC-01) was 69 SFU.
In the case of “PSEQYQPYPEQEQPILQQEE [avenin library peptide]”, the “IFN-γ ELISpot response (raw SFU)” value (PBMC [1]; Patient 1, peptide 50 μg/ml) is reported as 27 SFU, the “significant SFU as a percentage of maximal peptide SFU” value (shortened to “significant SFU as a percentage”) (PBMC [1]; Patient 1, peptide 50 μg/ml) is reported as “(^: 5-10%)” and the “IFN-γ ELISpot response (raw SFU)” value (PBMC [1]; Patient 2, peptide 50 μg/ml) is reported as 159 SFU. For the same substance, the “significant SFU as a percentage” value (PBMC [1]; Patient 2, peptide 50 μg/ml) was “*** (***: >70%)” and the “IFN-γ ELISpot response (raw SFU)” value (PBMC [1]; Patient 3, peptide 50 μg/ml) was 7 SFU.
“QPYPEQEQPILEEELLLQQQ [oats avenin peptide, CBL51491.1 (22-41) [Q28, Q33, Q34, Q35 to E]; one of two coded A01]” was tested, and the “IFN-γ ELISpot response (raw SFU)” value (Patient 2 TCC-01) was 275 SFU and the “IFN-γ ELISpot response (raw SFU)” value (Patient 6 TCC-01) was 16 SFU.
For “QYQPYPEQEQPILQQ [partially deamidated avenin peptide]”, the “patients in which the peptide was the most immunogenic” value (PBMC [2]; oats responders after 3-day oats challenge) was 5 patients.
With “SEQYQPYPEQEQPFLQEQPL [avenin library peptide]” the “IFN-γ ELISpot response (raw SFU)” value (PBMC [1]; Patient 1, peptide 50 μg/ml) was 122 SFU, the “significant SFU as a percentage” value (PBMC [1]; Patient 1, peptide 50 μg/ml) was “* (*: 20-40%)” and the “IFN-γ ELISpot response (raw SFU)” value (PBMC [1]; Patient 2, peptide 50 μg/ml) was 208 SFU. For the same substance, the “significant SFU as a percentage” value (PBMC [1]; Patient 2, peptide 50 μg/ml) was “*** (***: >70%)”, the “IFN-γ ELISpot response (raw SFU)” value (PBMC [1]; Patient 3, peptide 50 μg/ml) was 34 SFU and the “significant SFU as a percentage” value (PBMC [1]; Patient 3, peptide 50 μg/ml) was “* (*: 20-40%)”.
“SEQYQPYPEQQEPFVQ [avenin peptide of Genbank Q09097.1, wild-type]” was tested, and the “IFN-γ ELISpot response (raw SFU)” value (PBMC [2]; patient P1, peptide 1 μg/ml, after 3-day oats challenge) was 3 SFU, the “IFN-γ ELISpot response (raw SFU)” value (PBMC [2]; patient P1, peptide 10 μg/ml, after 3-day oats challenge) was 5 SFU and the “IFN-γ ELISpot response (raw SFU)” value (PBMC [2]; patient P1, peptide 100 μg/ml, after 3-day oats challenge) was 3 SFU. The “IFN-γ ELISpot response (raw SFU)” value (PBMC [2]; patient P2, peptide 1 μg/ml, after 3-day oats challenge) was 3 SFU, the “IFN-γ ELISpot response (raw SFU)” value (PBMC [2]; patient P2, peptide 10 μg/ml, after 3-day oats challenge) was 3 SFU and the “IFN-γ ELISpot response (raw SFU)” value (PBMC [2]; [3]) was 16 SFU. For the same substance, the “significant SFU as a percentage” value (PBMC [2]; [3]) was “* (*: 20-40%)”, the “IFN-γ ELISpot response (raw SFU)” value (PBMC [2]; patient P3, peptide 1 μg/ml, after 3-day oats challenge) was 8 SFU and the “IFN-γ ELISpot response (raw SFU)” value (PBMC [2]; patient P3, peptide 10 μg/ml, after 3-day oats challenge) was 9 SFU. The “IFN-γ ELISpot response (raw SFU)” value (PBMC [2]; patient P3, peptide 100 μg/ml, after 3-day oats challenge) was 4 SFU, the “IFN-γ ELISpot response (raw SFU)” value (PBMC [2]; patient P11, peptide 1 μg/ml, after 3-day oats challenge) was 0 SFU and the “IFN-γ ELISpot response (raw SFU)” value (PBMC [2]; patient P11, peptide 10 μg/ml, after 3-day oats challenge) was 0 SFU. The “IFN-γ ELISpot response (raw SFU)” value (PBMC [2]; patient P11, peptide 100 μg/ml, after 3-day oats challenge) was 0 SFU, the “IFN-γ ELISpot response (raw SFU)” value (PBMC [2]; patient P12, peptide 1 μg/ml, after 3-day oats challenge) was 1 SFU and the “IFN-γ ELISpot response (raw SFU)” value (PBMC [2]; patient P12, peptide 10 μg/ml, after 3-day oats challenge) was 3 SFU. For the same substance, the “IFN-γ ELISpot response (raw SFU)” value (PBMC [2]; patient P12, peptide 100 μg/ml, after 3-day oats challenge) was 0 SFU and the “IFN-γ ELISpot response (raw SFU)” value (PBMC [2]; patient P13, peptide 50 μg/ml, after 3-day oats challenge) was 9 SFU.
For “pEPEQIIPEQPEQPS ([pGlu]PEQIIPEQPEQPS) [rye peptide, AAB58403.1 (195-208) [Q195 to pyroglutamate, Q202 to E, Q205 to E], reference compound]”, the “IFN-γ ELISpot response (raw SFU)” value (Patient 14 TCC-01) was 59 SFU, the “IFN-γ ELISpot response (raw SFU)” value (Patient 2 TCC-01) was 2 SFU and the “IFN-γ ELISpot response (raw SFU)” value (Patient 6 TCC-01) was 3 SFU.
“pEPEQPFPEQPQQII ([pGlu]PEQPFPEQPQQII) [rye peptide, AAB58403.1 (187-200) [Q187 to pyroglutamate, Q189 to E, Q194 to E], reference compound]” was tested, and the “IFN-γ ELISpot response (raw SFU)” value (Patient 14 TCC-01) was 58 SFU, the “IFN-γ ELISpot response (raw SFU)” value (Patient 2 TCC-01) was 0 SFU and the “IFN-γ ELISpot response (raw SFU)” value (Patient 6 TCC-01) was 0 SFU.
